# Data as given in US12612412B2, “Antiviral heterocyclic compounds” (Enanta Pharmaceuticals, Inc., priority 2021, dated 2026).
# Test system: genotype A, "Long" strain RSV
# Assay: RSV-A assay (CPE protection in Hep-2 cells, ATPlite readout)
# Assay type: cell-based, Human respiratory syncytial virus (HRSV)
# Conditions: human respiratory syncytial virus, genotype A “Long” strain RSV, MOI 0.1, CPE protection, read-out: Human RSV-A (“Long”)
# From the text: Hep-2 cells, (originally derived from tumors grown in irradiated-cortisonised weanling rats that had been injected with epidermoid carcinoma tissue from the larynx of a person, but later found to be indistinguishable from HeLa cells by PCR DNA analysis), were used for the culturing of genotype A, “Long” strain RSV. Flasks were inoculated with RSV and viral stocks were collected once cytopathic effect (CPE) was greater than 90%. Viral stocks in 25% sucrose media were snap frozen using liquid nitrogen to increase viral stability. Viral stock titers were quantified by tissue culture infectious dose 50% (TCID50) using 8,000 cells per well and 3-fold viral dilutions across a 96-well plate, cultured for 4 days. Viral stock titers were also quantified by a plaque forming unit assay, as described elsewhere.
# Following extensive parameter testing, the final assay is run as follows: Hep-2 cells are seeded into the inner 60 wells of a 96-well plate at 8,000 cells per well in a volume of 50 μL using Growth Media (DMEM without phenol red, 1% L-Glut, 1% Penn/Strep, 1% nonessential amino acids, 10% heat-inactivated FBS). 2-fold serial dilutions of control and test compounds are added to the wells in duplicate in a total volume of 25 μL. Viral stock is then added to the wells at a multiplicity of infection (MOI) of 0.1 in a volume of 25 μL, bringing the total volume of each well to 100 μL. The MOI is calculated using the PFU/mL, or TCID50 if unavailable. Each 96-well plate has a control column of 6 wells with cells and virus but no compound (negative control, max CPE), a column with cells but no compound or virus (positive control, minimum CPE), and a column with no cells or virus or compound (background plate/reagent control). The control wells with cells but no virus are given an additional 25 μL of growth media containing an equal quantity of sucrose as those wells receiving the viral stock in order to keep consistent in media and volume conditions. The outer wells of the plate are filled with 125 μL of moat media (DMEM, 1% Penn/Strep) to act as a thermal and evaporative moat around the test wells. Following a 5-day incubation period, the plates are read using ATPlite (50 uL added per well), which quantifies the amount of ATP (a measure of cell health) present in each well. Assay plates are read using the Envision luminometer. […] EC50 ranges are as follows: A<0.2 μM; B>0.2 μM.
row,EC50 [µM],SMILES
1,< 0.2,Cc1cnc2c(NC(=O)OC3CC3)cc(C(=O)NC[C@](O)(c3cc4c(c(-c5ccc(F)cc5)n3)OC[C@]4(C)C(N)=O)C(F)(F)F)cc2c1 [Example 216]
2,< 0.2,COc1cc(C(=O)NC[C@](O)(c2cc3c(c(-c4ccc(F)cc4)n2)OC[C@]3(C)C(N)=O)C(F)(F)F)cc2c1NC(=O)C2 [Example 225]
3,< 0.2,Cc1cnc2c(NC(=O)NC34CC(O)(C3)C4)cc(C(=O)NC[C@](O)(c3cc4c(c(-c5ccc(F)cc5)n3)OC[C@]4(C)C(N)=O)C(F)(F)F)cc2c1 [Example 227]
4,< 0.2,COc1cc(C(=O)NC[C@](O)(c2cc3c(c(-c4ccc(F)c(Cl)c4)n2)OC[C@]3(C)C(N)=O)C(F)(F)F)cc2cc(Cl)c(C)nc12 [Example 228]
5,< 0.2,COc1cnc2ccc(C(=O)NC[C@](O)(c3cc4c(c(-c5ccc(F)cc5)n3)OC[C@]4(C)C(N)=O)C(F)(F)F)cc2c1 [Example 229]
6,< 0.2,COc1cc(C(=O)NC[C@](O)(c2cc3c(c(-c4ccc(F)cc4)n2)OC[C@]3(C)C(N)=O)C(F)(F)F)cc2cn(C3(C)CC3)nc12 [Example 232]
7,< 0.2,"COc1cc(C(=O)NC[C@](O)(c2cc3c(c(-c4ccc(F)cc4)n2)OC[C@]3(CCl)C(N)=O)C(F)(F)F)cc2cc(C)c(C)nc12 [Example 233, (S)-3-(chloromethyl)-7-(4-fluorophenyl)-5-((S)-1,1,1-trifluoro-2-hydroxy-3-(8-methoxy-2,3-dimethylquinoline-6-carboxamido)propan-2-yl)-2,3-dihydrofuro[2,3-c]pyridine-3-carboxamide]"
8,< 0.2,CC[C@]1(C(N)=O)COc2c1cc([C@@](O)(CNC(=O)c1cc(OC)c3nc(C4CC4)cn3c1)C(F)(F)F)nc2-c1ccc(F)cc1 [Example 236]
9,< 0.2,CC[C@]1(C(N)=O)COc2c1cc([C@@](O)(CNC(=O)c1cc(OC)c3ncccc3c1)C(F)(F)F)nc2-c1ccc(F)cc1 [Example 237]
10,> 0.2,CC[C@]1(C(N)=O)COc2c1cc([C@@](O)(CNC(=O)c1cc(OC)c3nc(C)c(Cl)cc3c1)C(F)(F)F)nc2-c1ccc(F)cc1 [Example 238]
11,< 0.2,CC[C@]1(C(N)=O)COc2c1cc([C@@](O)(CNC(=O)c1cc(OC)c3ncc(C(F)(F)F)cc3c1)C(F)(F)F)nc2-c1ccc(F)cc1 [Example 239]
12,< 0.2,CC[C@]1(C(N)=O)COc2c1cc([C@@](O)(CNC(=O)c1ccc(OC3CC3)c(OC)c1)C(F)(F)F)nc2-c1ccc(F)cc1 [Example 241]
13,< 0.2,CC[C@]1(C(N)=O)COc2c1cc([C@@](O)(CNC(=O)c1ccc(OC[C@@H](C)O)c(OC3CC3)c1)C(F)(F)F)nc2-c1ccc(F)cc1 [Example 242]
14,> 0.2,CC[C@@]1(C(N)=O)COc2c1cc([C@@](O)(CNC(=O)c1cc(OC)c3nn(C(F)F)cc3c1)C(F)(F)F)nc2-c1ccc(F)cc1 [Example 243]
15,> 0.2,CC[C@@]1(C(N)=O)COc2c1cc([C@@](O)(CNC(=O)c1cc(OC3CC3)c3ncccc3c1)C(F)(F)F)nc2-c1ccc(F)cc1 [Example 244]
16,< 0.2,CC[C@@]1(C(N)=O)COc2c1cc([C@@](O)(CNC(=O)c1cc(OC)c3nc(C4CC4)cn3c1)C(F)(F)F)nc2-c1ccc(F)cc1 [Example 245]
17,> 0.2,CC[C@@]1(C(N)=O)COc2c1cc([C@@](O)(CNC(=O)c1cc(OC)c3ncccc3c1)C(F)(F)F)nc2-c1ccc(F)cc1 [Example 246]
18,> 0.2,CC[C@@]1(C(N)=O)COc2c1cc([C@@](O)(CNC(=O)c1cc(OC)c3nc(C)c(Cl)cc3c1)C(F)(F)F)nc2-c1ccc(F)cc1 [Example 247]
19,> 0.2,CC[C@@]1(C(N)=O)COc2c1cc([C@@](O)(CNC(=O)c1cc(OC)c3ncc(C(F)(F)F)cc3c1)C(F)(F)F)nc2-c1ccc(F)cc1 [Example 248]
20,> 0.2,CC[C@@]1(C(N)=O)COc2c1cc([C@@](O)(CNC(=O)c1ccc(OC3CC3)c(OC)c1)C(F)(F)F)nc2-c1ccc(F)cc1 [Example 250]
21,> 0.2,CC[C@@]1(C(N)=O)COc2c1cc([C@@](O)(CNC(=O)c1ccc(OC[C@@H](C)O)c(OC3CC3)c1)C(F)(F)F)nc2-c1ccc(F)cc1 [Example 251]
22,< 0.2,COc1cc(C(=O)NC[C@](O)(c2cc3c(c(-c4ccc(F)cc4)n2)OCC3(C(N)=O)C(F)F)C(F)(F)F)cc2c1=NC(C1CC1)N=2 (stereo partly shown) [Example 253]
23,< 0.2,COc1cc(C(=O)NC[C@](O)(c2cc3c(c(-c4ccc(F)cc4)n2)OCC3(C(N)=O)C(F)F)C(F)(F)F)cc2cccnc12 (stereo partly shown) [Example 254]

row,EC50 [µM],SMILES
1,< 0.2,COc1cc(C(=O)NC[C@](O)(c2cc3c(c(-c4ccc(F)cc4)n2)OCC3(C(N)=O)C(F)F)C(F)(F)F)cc2cn(C(F)F)nc12 (stereo partly shown) [Example 255]
2,< 0.2,COc1cc(C(=O)NC[C@](O)(c2cc3c(c(-c4ccc(F)cc4)n2)OCC3(C(N)=O)C(F)F)C(F)(F)F)cc2cc(Cl)c(C)nc12 (stereo partly shown) [Example 256]
3,< 0.2,COc1cc(C(=O)NC[C@](O)(c2cc3c(c(-c4ccc(F)cc4)n2)OCC3(C(N)=O)C(F)F)C(F)(F)F)cc2cc(C(F)(F)F)cnc12 (stereo partly shown) [Example 257]
4,< 0.2,NC(=O)C1(C(F)F)COc2c1cc([C@@](O)(CNC(=O)c1cc(F)c3nc(N)sc3c1)C(F)(F)F)nc2-c1ccc(F)cc1 (stereo partly shown) [Example 258]
5,< 0.2,COc1cc(C(=O)NC[C@](O)(c2cc3c(c(-c4ccc(F)cc4)n2)OCC3(C(N)=O)C(F)F)C(F)(F)F)cn2cc(C3CC3)nc12 (stereo partly shown) [Example 259]
6,< 0.2,COc1cc(C(=O)NC[C@](O)(c2cc3c(c(-c4ccc(F)cc4)n2)OCC3(C(N)=O)C(F)F)C(F)(F)F)ccc1OC1CC1 (stereo partly shown) [Example 261]
7,> 0.2,NC(=O)[C@]1(C2CC2)COc2c1cc([C@@](O)(CNC(=O)c1cc(F)c3nc(N)sc3c1)C(F)(F)F)nc2-c1ccc(F)cc1 [Example 262]
8,> 0.2,COc1cc(C(=O)NC[C@](O)(c2cc3c(c(-c4ccc(F)cc4)n2)OC[C@]3(C(N)=O)C2CC2)C(F)(F)F)cc2cc(C(F)(F)F)cnc12 [Example 264]
9,> 0.2,COc1cc(C(=O)NC[C@](O)(c2cc3c(c(-c4ccc(F)cc4)n2)OC[C@]3(C(N)=O)C2CC2)C(F)(F)F)cc2cn(C(F)F)nc12 [Example 266]
10,> 0.2,COc1cc(C(=O)NC[C@](O)(c2cc3c(c(-c4ccc(F)cc4)n2)OC[C@]3(C(N)=O)C2CC2)C(F)(F)F)cc2cccnc12 [Example 269]
11,> 0.2,NC(=O)[C@]1(C2CC2)COc2c1cc([C@@](O)(CNC(=O)c1cc(OC3CC3)c3ncccc3c1)C(F)(F)F)nc2-c1ccc(F)cc1 [Example 271]
12,< 0.2,COc1cc(C(=O)NC[C@](O)(c2cc3c(c(-c4ccc(F)cc4)n2)OC[C@@]3(C(N)=O)C2CC2)C(F)(F)F)cn2cc(C3CC3)nc12 [Example 272]
13,> 0.2,COc1cc(C(=O)NC[C@](O)(c2cc3c(c(-c4ccc(F)cc4)n2)OC[C@]3(C(N)=O)C2CC2)C(F)(F)F)cn2cc(C3CC3)nc12 [Example 273]
14,< 0.2,COc1cc(C(=O)NC[C@](O)(c2cc3c(c(-c4ccc(F)cc4)n2)OC[C@@]3(C(N)=O)C2CC2)C(F)(F)F)cc2cc(Cl)c(C)nc12 [Example 274]
15,< 0.2,COc1cc(C(=O)NC[C@](O)(c2cc3c(c(-c4ccc(F)cc4)n2)OC[C@]3(C(N)=O)C2CC2)C(F)(F)F)cc2cc(Cl)c(C)nc12 [Example 275]
16,< 0.2,COc1cc(C(=O)NC[C@](O)(c2cc3c(c(-c4ccc(F)cc4)n2)OC[C@@]3(C(N)=O)C2CC2)C(F)(F)F)ccc1OC1CC1 [Example 276]
17,> 0.2,COc1cc(C(=O)NC[C@](O)(c2cc3c(c(-c4ccc(F)cc4)n2)OC[C@]3(C(N)=O)C2CC2)C(F)(F)F)ccc1OC1CC1 [Example 277]
18,< 0.2,C[C@@H](O)COc1ccc(C(=O)NC[C@](O)(c2cc3c(c(-c4ccc(F)cc4)n2)OC[C@@]3(C(N)=O)C2CC2)C(F)(F)F)cc1OC1CC1 [Example 278]
19,> 0.2,C[C@@H](O)COc1ccc(C(=O)NC[C@](O)(c2cc3c(c(-c4ccc(F)cc4)n2)OC[C@]3(C(N)=O)C2CC2)C(F)(F)F)cc1OC1CC1 [Example 279]
20,> 0.2,COc1cc(C(=O)NC[C@](O)(c2cc3c(c(-c4ccc(F)cc4)n2)OC[C@]3(C(N)=O)C2CC2)C(F)(F)F)cc2cn(C3CC3)nc12 [Example 281]
21,> 0.2,COc1cc(C(=O)NC[C@](O)(c2cc3c(c(-c4ccc(F)cc4)n2)OC[C@@]3(CF)C(N)=O)C(F)(F)F)cc2cccnc12 [Example 282]
22,< 0.2,COc1cc(C(=O)NC[C@](O)(c2cc3c(c(-c4ccc(F)cc4)n2)OC[C@]3(CF)C(N)=O)C(F)(F)F)cc2cccnc12 [Example 283]
23,< 0.2,COc1cc(C(=O)NC[C@](O)(c2cc3c(c(-c4ccc(F)cc4)n2)OC[C@@]3(CF)C(N)=O)C(F)(F)F)cc2cc(Cl)c(C)nc12 [Example 284]
